“And” between values parts separate entries of the source, which are not always exact repeats. Equal values may be shown once.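 Values below derive from 48-hour exposures of cells grown in 96-well plates, with endpoints linearly interpolated between the two concentrations bracketing the appropriate inhibition level. At the GI50, growth is halved.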 The source made the active and inactive calls. Cut-off read from the data, not from the text of the source: active = GI50 up to about 1.1 µM and inactive = higher.
Columns and labels:
Experiment in all cases: inhibition of tumour cell growth, NCI panel, 48 h
786-0 = test system: 786-0
A549 = test system: A549
BT-549 = test system: BT-549
CAKI-1 = test system: CAKI-1
CCRF-CEM = test system: CCRF-CEM
HCT-15 = test system: HCT-15
HOP-62 = test system: HOP-62
HT-29 = test system: HT-29
KM12 = test system: KM12
LOX IMVI = test system: LOX IMVI
MCF7 = test system: MCF7
MDA-N = test system: MDA-N
Malme-3M = test system: Malme-3M
NCI-H522 = test system: NCI-H522
OVCAR-5 = test system: OVCAR-5
PC-3 = test system: PC-3
SF-268 = test system: SF-268
SK-MEL-28 = test system: SK-MEL-28
T47D = test system: T47D
HCC 2998 = test system: HCC 2998

SMILES	GI50 (786-0)	GI50 (A549)	GI50 (BT-549)	GI50 (CAKI-1)	GI50 (CCRF-CEM)	GI50 (HCT-15) [µM]	GI50 (HOP-62)	GI50 (HT-29)	GI50 (KM12)	GI50 (LOX IMVI)	GI50 (MCF7)	GI50 (MDA-N)	GI50 (Malme-3M)	GI50 (NCI-H522)	GI50 (OVCAR-5)	GI50 (PC-3)	GI50 (SF-268)	GI50 (SK-MEL-28)	GI50 (T47D)	GI50 (HCC 2998)
C[n+]1c(/C=C/c2ccc(O)c3ncccc23)[se]c2ccccc21	2.99 µM (inactive)	7.06 µM (inactive)	6.53 µM (inactive)	5.01 µM (inactive)	0.92 µM (active)	0.631	3.3 µM (inactive)	4.11 µM (inactive)	2.48 µM (inactive)	2.33 µM (inactive)	1.58 µM (inactive)	5.98 µM (inactive)	4.01 µM (inactive)	2.58 µM (inactive)	9.86 µM (inactive)	2.92 µM (inactive)	4.91 µM (inactive)	11.4 µM (inactive)	3.2 µM (inactive)	–
O=c1oc2c/c(=C\c3ccc([N+](=O)[O-])cc3)c(=O)c3cccc1c3-2	> 100 µM (inactive)	> 100 µM (inactive)	54.6 µM (inactive)	–	36.8 µM (inactive)	> 100	38.6 µM (inactive)	> 100 µM (inactive)	83.6 µM (inactive)	35.2 µM (inactive)	> 100 µM (inactive)	> 100 µM (inactive)	> 100 µM (inactive)	28.1 µM (inactive)	> 100 µM (inactive)	> 100 µM (inactive)	39.8 µM (inactive)	> 100 µM (inactive)	> 100 µM (inactive)	> 100 µM (inactive)
COc1ccc(N2C(=O)C(C#N)=C(SC)C(C#N)C2=O)cc1 (stereo not given)	> 100 µM (inactive)	> 100 µM (inactive)	> 100 µM (inactive)	> 100 µM (inactive)	> 100 µM (inactive)	> 100	> 100 µM (inactive)	> 100 µM (inactive)	> 100 µM (inactive)	> 100 µM (inactive)	> 100 µM (inactive)	> 100 µM (inactive)	> 100 µM (inactive)	> 100 µM (inactive)	> 100 µM (inactive)	> 100 µM (inactive)	> 100 µM (inactive)	–	–	> 100 µM (inactive)
Cc1cn(C2CC(N(O)Cc3ccccc3)C(CO[Si](C)(C)C(C)(C)C)O2)c(=O)[nH]c1=O (stereo not given)	17.4 µM (inactive) and 15.6 µM (inactive)	–	16.4 µM (inactive) and 16.3 µM (inactive)	17 µM (inactive) and 26.5 µM (inactive)	30.1 µM (inactive)	37.2	19.5 µM (inactive) and 16.3 µM (inactive)	17.3 µM (inactive) and 22.9 µM (inactive)	23 µM (inactive) and 17.2 µM (inactive)	–	19.6 µM (inactive) and 30.9 µM (inactive)	18.9 µM (inactive) and 17.4 µM (inactive)	17.9 µM (inactive)	18 µM (inactive)	18.6 µM (inactive) and 19.7 µM (inactive)	14.5 µM (inactive) and 22.6 µM (inactive)	–	–	–	19.8 µM (inactive) and 16.7 µM (inactive)
CC(C)(C)C1CCC2c3c([nH]c4ccccc34)C3C(=O)N(c4ccc(C#N)cc4)C(=O)C3C2C1 (stereo not given)	12 µM (inactive)	8.43 µM (inactive)	15.7 µM (inactive)	12.3 µM (inactive)	0.0108 µM (active)	12.1	15.7 µM (inactive)	3.78 µM (inactive)	–	13.2 µM (inactive)	29.5 µM (inactive)	11.9 µM (inactive)	17.3 µM (inactive)	–	20.7 µM (inactive)	3.66 µM (inactive)	11 µM (inactive)	14 µM (inactive)	–	3.25 µM (inactive)
CCCCCCCCCCCC(=O)OCC(O)CO (stereo not given) [GLYCEROL MONOLAURATE]	> 100 µM (inactive)	54.1 µM (inactive)	36.4 µM (inactive)	> 100 µM (inactive)	42.7 µM (inactive)	> 100	> 100 µM (inactive)	31.2 µM (inactive)	20.4 µM (inactive)	48.1 µM (inactive)	> 100 µM (inactive)	88.9 µM (inactive)	–	> 100 µM (inactive)	> 100 µM (inactive)	> 100 µM (inactive)	> 100 µM (inactive)	> 100 µM (inactive)	69.3 µM (inactive)	–
Cn1c(=O)c2c(ncn2CCSS(=O)(=O)O)n(C)c1=O	> 100 µM (inactive)	> 100 µM (inactive)	> 100 µM (inactive)	> 100 µM (inactive)	–	> 100	86.9 µM (inactive)	99.5 µM (inactive)	> 100 µM (inactive)	–	> 100 µM (inactive)	> 100 µM (inactive)	> 100 µM (inactive)	> 100 µM (inactive)	> 100 µM (inactive)	> 100 µM (inactive)	> 100 µM (inactive)	> 100 µM (inactive)	> 100 µM (inactive)	–
COc1cc(NC(C)=O)ccc1C(=O)N/N=C/c1ccco1	> 100 µM (inactive)	> 100 µM (inactive)	> 100 µM (inactive)	65 µM (inactive)	80.2 µM (inactive)	> 100	> 100 µM (inactive)	> 100 µM (inactive)	> 100 µM (inactive)	97.5 µM (inactive)	52.2 µM (inactive)	> 100 µM (inactive)	> 100 µM (inactive)	> 100 µM (inactive)	> 100 µM (inactive)	> 100 µM (inactive)	> 100 µM (inactive)	> 100 µM (inactive)	> 100 µM (inactive)	–
Cn1c(=O)cc(NNc2ccc(Cl)c(Cl)c2)[nH]c1=O	12.4 µM (inactive)	16.2 µM (inactive)	16 µM (inactive)	14.1 µM (inactive)	13.1 µM (inactive)	3.75	16.4 µM (inactive)	18 µM (inactive)	12.3 µM (inactive)	12.2 µM (inactive)	6.41 µM (inactive)	9.06 µM (inactive)	> 10 µM (inactive)	–	14.4 µM (inactive)	12.6 µM (inactive)	27.9 µM (inactive)	11.5 µM (inactive)	4.99 µM (inactive)	2.53 µM (inactive)
Cc1cn(CCC(N)C(=O)O)c(=O)[nH]c1=O (stereo not given)	> 100 µM (inactive)	> 100 µM (inactive)	> 100 µM (inactive)	–	> 100 µM (inactive)	> 100	> 100 µM (inactive)	> 100 µM (inactive)	> 100 µM (inactive)	> 100 µM (inactive)	> 100 µM (inactive)	> 100 µM (inactive)	> 100 µM (inactive)	> 100 µM (inactive)	> 100 µM (inactive)	> 100 µM (inactive)	> 100 µM (inactive)	> 100 µM (inactive)	> 100 µM (inactive)	–
COc1cc2c(c3c1c(=O)c1ccccc1n3C)C=CC1(CCCC1)O2	6.56 µM (inactive)	19.7 µM (inactive)	10.1 µM (inactive)	2.54 µM (inactive)	9.82 µM (inactive)	14.1	12.8 µM (inactive)	7.05 µM (inactive)	7.05 µM (inactive)	1.02 µM (active)	16 µM (inactive)	15.3 µM (inactive)	16.4 µM (inactive)	16.3 µM (inactive)	12.9 µM (inactive)	> 10 µM (inactive)	18.8 µM (inactive)	13.9 µM (inactive)	–	21.8 µM (inactive)
CCOC(=O)CCC(C(=O)OCC)n1nnc2ccc(Nc3c(C)[n+]([O-])c4ccc(Cl)cc4[n+]3[O-])cc21 (stereo not given)	44 µM (inactive)	57.3 µM (inactive)	54.3 µM (inactive)	49.2 µM (inactive)	35 µM (inactive)	27.9	36.1 µM (inactive)	52.7 µM (inactive)	91.2 µM (inactive)	28.8 µM (inactive)	19.9 µM (inactive)	54.7 µM (inactive)	> 100 µM (inactive)	43.4 µM (inactive)	54.1 µM (inactive)	> 100 µM (inactive)	23.5 µM (inactive)	–	34 µM (inactive)	–
CO[P@]1(=O)O[C@@H](c2ccccc2)[C@H](O)[C@]1(O)c1ccccc1	> 100 µM (inactive)	> 100 µM (inactive)	> 100 µM (inactive)	> 100 µM (inactive)	> 100 µM (inactive)	> 100	–	> 100 µM (inactive)	> 100 µM (inactive)	> 100 µM (inactive)	> 100 µM (inactive)	> 100 µM (inactive)	> 100 µM (inactive)	> 100 µM (inactive)	> 100 µM (inactive)	> 100 µM (inactive)	> 100 µM (inactive)	> 100 µM (inactive)	> 100 µM (inactive)	–
Nc1nc(-c2ccccc2)cc(-c2ccc(F)cc2)c1-c1ccc(Cl)cc1	88.3 µM (inactive)	> 100 µM (inactive)	> 100 µM (inactive)	> 100 µM (inactive)	33.2 µM (inactive)	> 100	32.6 µM (inactive)	13.2 µM (inactive)	> 100 µM (inactive)	> 100 µM (inactive)	41.7 µM (inactive)	> 100 µM (inactive)	> 100 µM (inactive)	–	> 100 µM (inactive)	> 100 µM (inactive)	> 100 µM (inactive)	> 100 µM (inactive)	> 100 µM (inactive)	> 100 µM (inactive)
CCOC(=O)C1=COC(C)(c2ccccc2)CC1=O (stereo not given)	> 100 µM (inactive)	> 100 µM (inactive)	> 100 µM (inactive)	> 100 µM (inactive)	–	> 100	> 100 µM (inactive)	> 100 µM (inactive)	> 100 µM (inactive)	–	> 100 µM (inactive)	> 100 µM (inactive)	–	> 100 µM (inactive)	> 100 µM (inactive)	> 100 µM (inactive)	> 100 µM (inactive)	> 100 µM (inactive)	> 100 µM (inactive)	> 100 µM (inactive)
